Data reported in the supplement of paper PMC10627819.

How the values were obtained:
Assay in all cases: Bliss interaction score (quartile over a dose matrix) (fitness difference); higher = more antagonism (negative = synergy)
S. pneumoniae D39V = system: S. pneumoniae D39V
Method in brief: (§1)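 Quartiles of the Bliss score were taken over technical, biological and donor/recipient replicates. That score is observed fitness minus the product of the single-drug fitness values, which were inferred from combination data. Fitness itself is OD595 at entry into stationary phase divided by the plate's robust no-drug mean, with a cap at 1.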

S. aureus DSM 20231 = system: S. aureus DSM 20231
Method in brief: as §1

S. aureus Newman = system: S. aureus Newman
Method in brief: as §1

B. subtilis 168 = system: B. subtilis 168
Method in brief: as §1
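Also: first quartile when negative (synergy) and third quartile when positive (antagonism).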

| Structure (SMILES) | Bliss interaction score (S. pneumoniae D39V) | Bliss interaction score (S. aureus DSM 20231) | Bliss interaction score (S. aureus Newman) | Bliss interaction score (B. subtilis 168) | Bliss interaction score (S. pneumoniae D39V; main component drawn) | Bliss interaction score (S. aureus DSM 20231; main component drawn) | Bliss interaction score (S. aureus Newman; main component drawn) | Bliss interaction score (B. subtilis 168; main component drawn) |
| --- | --- | --- | --- | --- | --- | --- | --- | --- |
| N#CC(C#N)=NNc1cccc(Cl)c1 [CCCP] + CN(N=O)C(=O)N[C@@H](C=O)[C@@H](O)[C@H](O)[C@H](O)CO [Streptozotocin] | 0.0737 | -0.0689 | -0.0707 | 0.0172 | – | – | – | – |
| CN(C)[C@@H]1C(O)=C(C(N)=O)C(=O)[C@@]2(O)C(O)=C3C(=O)c4c(O)ccc(Cl)c4[C@@](C)(O)[C@H]3C[C@@H]12 [Clortetracycline] + CCCCCCCCCC(=O)N[C@@H]1[C@H]([C@@H]([C@H](O[C@H]1OC2=C3C=C4C=C2OC5=C(C=C(C=C5)[C@H]([C@H]6C(=O)N[C@@H](C7=C(C(=CC(=C7)O)OC8[C@H]([C@H]([C@@H]([C@H](O8)CO)O)O)O)C9=C(C=CC(=C9)[C@H](C(=O)N6)NC(=O)[C@@H]4NC(=O)[C@@H]1C2=CC(=CC(=C2)OC2=C(C=CC(=C2)[C@H](C(=O)N[C@H](CC2=CC(=C(O3)C=C2)Cl)C(=O)N1)N)O)O)O)C(=O)O)O[C@H]1[C@@H]([C@H]([C@@H]([C@H](O1)CO)O)O)NC(=O)C)Cl)CO)O)O [Teicoplanin] | – | – | – | – | -0.0412 | 0.111 | 0.0527 | 0.0958 |
| N#CC(C#N)=NNc1cccc(Cl)c1 [CCCP] + CN[C@H](CC(C)C)C(=O)N[C@H]1C(=O)N[C@@H](CC(N)=O)C(=O)N[C@H]2C(=O)N[C@H]3C(=O)N[C@H](C(=O)N[C@H](C(=O)O)c4cc(O)cc(O)c4-c4cc3ccc4O)[C@H](O)c3ccc(c(Cl)c3)Oc3cc2cc(c3O[C@@H]2O[C@H](CO)[C@@H](O)[C@H](O)[C@H]2O[C@H]2C[C@](C)(N)[C@H](O)[C@H](C)O2)Oc2ccc(cc2Cl)[C@H]1O [Vancomycin] | 0.0815 | 0.0309 | -0.0614 | 0.0489 | – | – | – | – |
| N#CC(C#N)=NNc1cccc(Cl)c1 [CCCP] + CO/N=C(\C(=O)N[C@@H]1C(=O)N2C(C(=O)O)=C(COC(C)=O)CS[C@H]12)c1csc(N)n1 [Cefotaxime] | -0.112 | 0.0268 | 0.0493 | 0.139 | – | – | – | – |
| CC(=O)Oc1ccccc1C(=O)O [Acetylsalicylicacid] + C[C@@H](O)[C@H]1C(=O)N2C(C(=O)O)=C(SCCNC=N)C[C@H]12 [Imipenem] | 0.0958 | 0.0498 | 0.0337 | -0.34 | – | – | – | – |
| CO/N=C(\C(=O)N[C@@H]1C(=O)N2C(C(=O)O)=C(COC(C)=O)CS[C@H]12)c1csc(N)n1 [Cefotaxime] + N[C@@H]1CONC1=O [CycloserineD] | -0.0787 | 0.0848 | 0.0643 | 0.0869 | – | – | – | – |
| C[C@@H]1O[C@@H]1P(=O)(O)O [Fosfomycin] + CC(=O)O[C@H]1C[C@@]2(C)[C@@H](C[C@@H](O)[C@H]3[C@@]4(C)CC[C@@H](O)[C@@H](C)[C@@H]4CC[C@@]32C)/C1=C(\CCC=C(C)C)C(=O)O [Fusidic acid] | 0.0774 | 0.0457 | -0.0179 | 0.0895 | – | – | – | – |
| CC(=O)Oc1ccccc1C(=O)O [Acetylsalicylicacid] + CN(C)C(=O)C(CCN1CCC(O)(c2ccc(Cl)cc2)CC1)(c1ccccc1)c1ccccc1 [Loperamide] | 0.144 | 0.131 | -0.0344 | 0.0636 | – | – | – | – |
| COc1cccc2c1C(=O)c1c(O)c3c(c(O)c1C2=O)C[C@@](O)(C(=O)CO)C[C@@H]3O[C@H]1C[C@H](N)[C@H](O)[C@H](C)O1 [Doxorubicin] + CN[C@H](CC(C)C)C(=O)N[C@H]1C(=O)N[C@@H](CC(N)=O)C(=O)N[C@H]2C(=O)N[C@H]3C(=O)N[C@H](C(=O)N[C@H](C(=O)O)c4cc(O)cc(O)c4-c4cc3ccc4O)[C@H](O[C@H]3C[C@](C)(N)[C@@H](O)[C@H](C)O3)c3ccc(c(Cl)c3)Oc3cc2cc(c3O[C@@H]2O[C@H](CO)[C@@H](O)[C@H](O)[C@H]2O[C@H]2C[C@](C)(NCc3ccc(-c4ccc(Cl)cc4)cc3)[C@@H](O)[C@H](C)O2)Oc2ccc(cc2Cl)[C@H]1O [Oritavancin] | 0.0571 | 0.0678 | 0.114 | -0.0288 | – | – | – | – |
| CC(=O)Oc1ccccc1C(=O)O [Acetylsalicylicacid] + CN(C)c1cc(NC(=O)CNC(C)(C)C)c(O)c2c1C[C@H]1C[C@H]3[C@H](N(C)C)C(O)=C(C(N)=O)C(=O)[C@@]3(O)C(O)=C1C2=O [Tigecycline] | -0.0515 | -0.088 | -0.0593 | -0.11 | – | – | – | – |
| CN(C)[C@@H]1C(O)=C(C(N)=O)C(=O)[C@@]2(O)C(O)=C3C(=O)c4c(O)ccc(Cl)c4[C@@](C)(O)[C@H]3C[C@@H]12 [Clortetracycline] + CO[C@@]12[C@H](COC(N)=O)C3=C(C(=O)C(C)=C(N)C3=O)N1C[C@@H]1N[C@@H]12 [MitomycinC] | -0.0402 | -0.0551 | 0.104 | 0.0447 | – | – | – | – |
| CO/N=C(\C(=O)N[C@@H]1C(=O)N2C(C(=O)O)=C(COC(N)=O)CS[C@H]12)c1ccco1 [Cefuroxime] + C/C(=C\C(=O)OCCCCCCCCC(=O)O)C[C@@H]1OC[C@H](C[C@@H]2O[C@H]2[C@@H](C)[C@H](C)O)[C@@H](O)[C@H]1O [Pseudomonic acid] | 0.0629 | – | – | 0.074 | – | – | – | – |
| CN(C)[C@@H]1C(O)=C(C(N)=O)C(=O)[C@@]2(O)C(O)=C3C(=O)c4c(O)ccc(Cl)c4[C@@](C)(O)[C@H]3C[C@@H]12 [Clortetracycline] + Cc1onc(-c2ccccc2)c1C(=O)N[C@@H]1C(=O)N2[C@@H]1SC(C)(C)[C@@H]2C(=O)O [Oxacillin] | 0.125 | 0.0471 | 0.0386 | 0.0896 | – | – | – | – |
| C[C@H]1c2cccc(O)c2C(=O)C2=C(O)[C@]3(O)C(=O)C(C(N)=O)=C(O)[C@@H](N(C)C)[C@@H]3[C@@H](O)[C@@H]21 [Doxycycline] + CC(=O)O[C@H]1C[C@@]2(C)[C@@H](C[C@@H](O)[C@H]3[C@@]4(C)CC[C@@H](O)[C@@H](C)[C@@H]4CC[C@@]32C)/C1=C(\CCC=C(C)C)C(=O)O [Fusidic acid] | -0.0559 | -0.0196 | 0.0131 | -0.049 | – | – | – | – |
| CN(C)[C@@H]1C(O)=C(C(N)=O)C(=O)[C@@]2(O)C(O)=C3C(=O)c4c(O)ccc(Cl)c4[C@@](C)(O)[C@H]3C[C@@H]12 [Clortetracycline] + N[C@@H]1CONC1=O [CycloserineD] | 0.199 | -0.118 | 0.0727 | 0.0921 | – | – | – | – |
| CC(=O)Oc1ccccc1C(=O)O [Acetylsalicylicacid] + CO[C@@]12[C@H](COC(N)=O)C3=C(C(=O)C(C)=C(N)C3=O)N1C[C@@H]1N[C@@H]12 [MitomycinC] | 0.0652 | 0.0545 | -0.0274 | -0.0648 | – | – | – | – |
| CC1(C)S[C@@H]2[C@H](NC(=O)Cc3ccccc3)C(=O)N2[C@H]1C(=O)O [PenicillinG] + CCN(CC)CCOC(=O)c1ccc(N)cc1 [Procaine] | 0.0857 | -0.0657 | 0.0542 | 0.0367 | – | – | – | – |
| CC(=O)Oc1ccccc1C(=O)O [Acetylsalicylicacid] + CC[C@H]1OC(=O)[C@H](C)[C@@H](O[C@H]2C[C@@](C)(OC)[C@@H](O)[C@H](C)O2)[C@H](C)[C@@H](O[C@@H]2O[C@H](C)C[C@H](N(C)C)[C@H]2O)[C@](C)(O)C[C@@H](C)C(=O)[C@H](C)[C@@H](O)[C@]1(C)O [Erythromycin] | 0.0745 | 0.1 | 0.144 | 0.184 | – | – | – | – |
| CO/N=C(\C(=O)N[C@@H]1C(=O)N2C(C(=O)O)=C(COC(N)=O)CS[C@H]12)c1ccco1 [Cefuroxime] + O=C(O)c1cn(C2CC2)c2cc(N3CCNCC3)c(F)cc2c1=O [Ciprofloxacin] | -0.0381 | -0.31 | -0.0563 | -0.171 | – | – | – | – |
